Data published in patent EP0409499A2, “Pharmaceutical compositions” (BRITISH TECHNOLOGY GROUP LIMITED, priority 1989, dated 1991).

Assays:
[1] = result in words, Herman et al, Adv. Pharmacol. Chemother. 1982, 19, 249; cited from earlier work
growing rats = assay: Cardioprotective effect against the toxicity of doxorubicin (heart rate and cardiac output in rats); assay type: in vivo; settings: relative to saline + saline control
Protocol: The following compounds were selected to be tested for their cardioprotetive effect against the toxicity of doxorubicin. The compounds tested were: 1,3-bis(3,5-dioxopiperazin-1-yl)-propane 1,2-bis(2-methyl-3,5-dioxopiperazin-1-yl)-ethane 1,2-bis(3,5-dioxopiperazin-1-yl)-butane.
Groups of growing rats were injected intra-peritoneally (i.p.) with 100 mg/kg or 400 mg/kg body weight of the compound. After 1 hour, doxorubicin solution was injected intravenously (i.v.) at a concentration of 4 mg/kg body weight. Other groups of rats were injected with saline (i.p.) followed after 1 hour by saline (i.v.) or with saline (i.p.) followed after 1 hour by doxorubicin solution (i.v.) as controls. The cardiotoxicity of doxorubicin and the protection supplied by the compounds was assessed by measuring the heart rate and cardiac output relative to the saline + saline control. Cardiac output was measured by injecting ^99mTc into the heart and measuring the rate at which the isotope was cleared from the heart. Heart rate was measured in the standard manner.
The results are shown in the Table below from which it will be seen that each of the compounds results in an improvement in cardiac output and heart rate as compared with the depressed values which occur when only doxorubicin is used. TABLE

[2] = result in words, Herman et al, Res. Commun. Chem. Pathol. Pharmacol. 1985, 48, 39; cited from earlier work
[3] = compound 100 mg/kg i.p., 1 hour later doxorubicin 4 mg/kg i.v.
[4] = compound 100 mg/kg i.p., 1 hour later doxorubicin 4 mg/kg i.v., 99mTc clearance from the heart
[5] = saline i.p., 1 hour later doxorubicin 4 mg/kg i.v. alone

Structure (SMILES) | Relative Heart Rate (growing rats; [3]) | Relative Cardiac Output (growing rats; [4]) | other results
CC(CN1CC(=O)NC(=O)C1)N1CC(=O)NC(=O)C1 (stereo not drawn) [ICRF 159] |  |  | reducing high dose daunorubicin toxicity versus doxorubicin toxicity [1]: consistently more effective in reducing high dose daunorubicin toxicity than doxorubicin toxicity
CCC(CN1CC(=O)NC(=O)C1)N1CC(=O)NC(=O)C1 (racemic) [1,2-bis(3,5-dioxopiperazin-1-yl)-butane, dl-1,2-bis(3,5-dioxopiperazin-1-yl)-butane] | 0.98 ± 0.03 | 0.70 ± 0.05 | Relative Heart Rate (growing rats; compound 400 mg/kg i.p., 1 hour later doxorubicin 4 mg/kg i.v.): 0.92 ± 0.04; Relative Cardiac Output (growing rats; compound 400 mg/kg i.p., 1 hour later doxorubicin 4 mg/kg i.v., 99mTc clearance from the heart): 0.67 ± 0.05
O=C1CN(CCCN2CC(=O)NC(=O)C2)CC(=O)N1 [1,3-bis(3,5-dioxopiperazin-1-yl)-propane] | 0.81 ± 0.12 | 0.56 ± 0.06 | 
O=C1CN(CCN2CC(=O)N(CN3CCOCC3)C(=O)C2)CC(=O)N1CN1CCOCC1 [bimolane] |  |  | protective effect against acute daunorubicin toxicity [2]: give protection against the lethal effects of daunorubicin
COc1cccc2c1C(=O)c1c(O)c3c(c(O)c1C2=O)C[C@@](O)(C(=O)CO)C[C@@H]3O[C@H]1C[C@H](N)[C@H](O)[C@H](C)O1 [doxorubicin, reference compound] |  |  | Relative Cardiac Output (growing rats; [5]): 0.41 ± 0.04; Relative Heart Rate (growing rats; [5]): 0.65 ± 0.19
CC1C(=O)NC(=O)CN1CCN1CC(=O)NC(=O)C1C (stereo not drawn) [1,2-bis(2-methyl-3,5-dioxopiperazin-1-yl)-ethane] | 0.99 ± 0.03 | 0.62 ± 0.05 | 
